Data on four molecules can be found in patent US20100168150A1, “Camptothecin Analogue Compounds, a Process for Their Preparation and Pharmaceutical Compositions Containing Them” (Les Laboratoires Servier, priority 2005, published 2010).

Structures are written as SMILES. Structures can show the parent of a compound that is named as a salt.

For series [1], the system named is human colon carcinoma HCT116. Put plainly: In vitro cytotoxicity, Microculture Tetrazolium Assay, HCT116. Particulars: HCT116 cells, 96 hours exposure, inhibition of proliferation. It counts as cell-based. Here is the method: (§1) The murine leukaemia L1210 and the human colon carcinomas HCT116 and HT29 were used in vitro. The cells are cultured in RPMI 1640 complete culture medium containing 10% foetal calf serum, 2 mM glutamine, 50 units/ml of penicillin, 50 μg/ml of streptomycin and 10 mM Hepes, pH=7.4. The cells are distributed on microplates and are exposed to the cytotoxic compounds for 4 doubling times, that is to say 48 hours (L1210) or 96 hours (HCT116 and HT29). The number of viable cells is then quantified by a colorimetric assay, the Microculture Tetrazolium Assay (J. Carmichael et al., Cancer Res.; 47, 936-942, (1987)). The results are expressed in terms of the IC50 (the concentration of cytotoxic agent which inhibits proliferation of the treated cells by 50%).

Series [2] deals with human colon carcinoma HT29. Put plainly: In vitro cytotoxicity, Microculture Tetrazolium Assay, HT29. It counts as cell-based. Particulars: HT29 cells, 96 hours exposure, inhibition of proliferation. The protocol: as §1
The nature of series [3]: In vivo toxicity, maximum tolerated dose. Particulars: nude (bab/c), mouse, in vivo; nude mice, intravenous administration once per week for 3 weeks; largest dose causing neither death nor weight loss of more than 20%. Here is the method:
(§2) The compounds are formulated in a Tween/water mixture and administered by the intravenous (i.v.) route (administration over three weeks at the rate of once per week, the injection volume being 0.2 ml/mouse with increasing doses of compounds of 6.25, 12.5, 25 and 50 mg/kg) to nude mice (bab/c supplied by Iffa Credo) weighing about 20 g. The maximum tolerated dose (MTD) is the largest dose causing neither death nor a weight loss of more than 20%.

Series [4] concerns nude mice. The series is described as follows: In vivo toxicity, maximum tolerated dose. Particulars: i.v. once per week for 3 weeks, compared with compound of Preparation 2. Here is the method: as §2
In series [5] the test system is HCT116. The series is described as follows: In vivo activity with respect to HCT116. Particulars: compared with non-esterified homologue (compound of Preparation 2).
Series [6] has as its system murine leukaemia L1210. Put plainly: In vitro cytotoxicity, Microculture Tetrazolium Assay, L1210. It counts as cell-based. Particulars: L1210 cells, 48 hours exposure, inhibition of proliferation. The protocol: as §1

As usually defined, the IC50 is the concentration that gives 50% inhibition. As usually defined, the MTD is the highest dose tested that stayed within the study's limit of toxicity. A lower MTD goes with poorer tolerability. With `CCC1(OC(=O)CCN2CCCCC2)C(=O)Cc2c1cc1n(c2=O)Cc2c-1nc1cc3c(cc1c2C1CCC1)OCO3.Cl` (stereo not drawn) [Example 2, 7-Ethyl-2,3-methylenedioxy-13-cyclobutyl-8,10-dioxo-8,9,10,12-tetrahydro-7H-cyclopenta[6,7]indolizino[1,2-b]quinolin-7-yl 3-piperidinopropanoate hydrochloride], the 50% inhibitory concentration (IC50) was 1.5 nM in series [1] (Homo sapiens, HCT-116) and 3.7 nM in series [2] (Homo sapiens, HT-29). This molecule showed an MTD at 3 weeks in series [3] of 25 mg/kg. For the same molecule, the “toxicity relative to the non-esterified homologue (compound of Preparation 2)” value in series [4] is “two times less toxic”. Further, the “in vivo activity with respect to HCT116 compared with compound of Preparation 2” value in series [5] was “same in vivo activity”.

Take `CCC1(OC(=O)CCN2CC[C@H]3CCCC[C@@H]3C2)C(=O)Cc2c1cc1n(c2=O)Cc2c-1nc1cc3c(cc1c2C1CCC1)OCO3` (stereo partly drawn) [Example 23, 7-Ethyl-2,3-methylenedioxy-13-cyclobutyl-8,10-dioxo-8,9,10,12-tetrahydro-7H-cyclopenta[6,7]indolizino[1,2-b]quinolin-7-yl 3-[(4aR,8aS)-octahydroisoquinolin-2(1H)-yl]propanoate hydrochloride]: the IC50 was 7.3 nM in series [6] (Mus musculus); 1.1 nM in series [1] (Homo sapiens, HCT-116); 2.4 nM in series [2] (Homo sapiens, HT-29).

With `CCC1(OC(=O)CCN2CCc3cc(OC)c(OC)cc3C2)C(=O)Cc2c1cc1n(c2=O)Cc2c-1nc1cc3c(cc1c2C1CCC1)OCO3` (stereo not drawn) [Example 24, 7-Ethyl-2,3-methylenedioxy-13-cyclobutyl-8,10-dioxo-8,9,10,12-tetrahydro-7H-cyclopenta[6,7]indolizino[1,2-b]quinolin-7-yl 3-[(6,7-dimethoxy-3,4-dihydroisoquinolin-2(1H)-yl]propanoate hydrochloride], the values for the IC50 in series [6], in series [1] and in series [2] were 7.9 nM, 0.7 nM and 2.6 nM, respectively.

Consider `CCC1(OC(=O)CCN2CCCCC2)C(=O)Cc2c1cc1n(c2=O)Cc2c-1nc1cc3c(cc1c2C)OCO3` (stereo not drawn) [Example 1, 7-Ethyl-2,3-methylenedioxy-13-methyl-8,10-dioxo-8,9,10,12-tetrahydro-7H-cyclopenta[6,7]indolizino[1,2-b]quinolin-7-yl 3-piperidinopropanoate hydrochloride], for which, in series [6] (Mus musculus), inhibition was half-maximal at 4.2 nM (IC50).
